# According to patent US4683230A, “BMY-28121, a new antitumor antibiotic” (Bristol-Myers Company, priority 1985, dated 1987):
# Tests used:
# [1] = Acute toxicity in mice, single intraperitoneal administration; set-up: species or system mice (male ddY strain); details: mouse, in vivo, ip, male ddY mice
# P388 leukemia = details: mouse, in vivo
# anaerobic bacteria = format: cell-based
# B16 melanoma = test: Antitumor activity in mice, melanotic melanoma B16; details: ip, once daily for 9 days, circled = significant antitumor effect
# [2] = test system: Clostridium perfringens A22787; test: microbe, parasite or virus in culture; format: cell-based
structure (smiles),measurement,setting,value
"COc1cccc2c1N[C@H](OC)[C@@H]1CC(/C=C/C(=O)N(C)C)=CN1C2=O [BMY-28121B, 1,10,11,11a-tetrahydro-9,11-dimethoxy-5H-pyrrolo[2,1-c][1,4]benzodiazepine-5-one-2-N,N-dimethylacrylamide]",LD50,[1],0.81 mg/kg
same,"antitumor activity against experimental tumors in mice, eg. P388 leukemia",P388 leukemia,marked antitumor activity
same,inhibition of anaerobic bacteria,anaerobic bacteria,inhibited all
same,solubility in ethyl acetate and ethyl ether,,slightly soluble
same,"solubility in methanol, ethanol, chloroform, pyridine, and dimethylformamide",,readily soluble
same,solubility in n-hexane,,practically insoluble
same,solubility in water,,practically insoluble
CO[C@@]12[C@H](COC(N)=O)C3=C(C(=O)C(C)=C(N)C3=O)N1C[C@@H]1N[C@@H]12 [Mitomycin C],T/C % of MST,B16 melanoma; 0.13 mg/kg/day,124%
same,T/C % of MST,B16 melanoma; 0.25 mg/kg/day,136%
CC1(C)S[C@@H]2[C@H](NC(=O)[C@H](N)c3ccccc3)C(=O)N2[C@H]1C(=O)O [Ampicillin],MIC,[2],0.1 µg/mL
COc1cccc2c1N[C@H](O)[C@@H]1CC(/C=C/C(=O)N(C)C)=CN1C2=O [BMY-28121A],"antitumor activity against experimental tumors in mice, eg. P388 leukemia",P388 leukemia,marked antitumor activity
